According to the OligoGym collection:
“And” between values parts separate entries of the source, which are not always exact repeats. Equal entries are not always repeated. After the bases stand the sugars from the 5' end (letter, count) and the backbone: PS all phosphorothioate, else s phosphorothioate and o phosphodiester by linkage. Methylation of C is not given here. e = 2'-O-(2-methoxyethyl) (MOE); k = constrained ethyl (cEt); d = 2'-deoxy (DNA); m = 2'-O-methyl

Molecular target: HSD17B13
Conditions: ASO, HepaRG

Sequence: CAGTAGGCAGTTTCTC (sugars k3 d10 k3, PS)
- target mRNA inhibition (0.02 µM): 0%
- target mRNA inhibition (0.078 µM): 0%
- target mRNA inhibition (0.313 µM): 30%
- target mRNA inhibition (1 µM): 72% and 50%
- target mRNA inhibition (1.25 µM): 55%
- target mRNA inhibition (5 µM): 86%

Sequence: TAAAGGTGGGATAAAC (sugars k3 d10 k3, PS)
- target mRNA inhibition (1 µM): 0%

Sequence: TAAACCTTCCCTGTGT (sugars k3 d9 k3 e1, PS)
- target mRNA inhibition (1 µM): 23%

Sequence: CTTGGAAGGAGACTGG (sugars k3 d10 k3, PS)
- target mRNA inhibition (1 µM): 60%

Sequence: CAAGTGACAGCATTGA (sugars k3 d10 k3, PS)
- target mRNA inhibition (1 µM): 48%

Sequence: CTCAAATAGCCTTTTG (sugars k3 d10 k3, PS)
- target mRNA inhibition (1 µM): 64%

Sequence: AGCCACTGTGACGATG (sugars k3 d10 k3, PS)
- target mRNA inhibition (1 µM): 10%

Sequence: AAGTAGGAGTAGATGA (sugars k3 d10 k3, PS)
- target mRNA inhibition (1 µM): 0%

Sequence: CATAACTTCATAGTGG (sugars k3 d9 k3 e1, PS)
- target mRNA inhibition (1 µM): 16%

Sequence: ACTGAAGGTCTGAGCT (sugars k3 d10 k3, PS)
- target mRNA inhibition (1 µM): 20%

Sequence: GTTTAGAAGTCAAACG (sugars k3 d10 k3, PS)
- target mRNA inhibition (1 µM): 0%

Sequence: GGGAGGTAGCTTTTGT (sugars k3 d1 m1 d8 k3, PS)
- target mRNA inhibition (1 µM): 17%

Sequence: CATATGTGAAGAGCTG (sugars k3 d9 k3 e1, PS)
- target mRNA inhibition (1 µM): 50%

Sequence: AGGCAGTTGAAGTTGA (sugars k3 d10 k3, PS)
- target mRNA inhibition (1 µM): 47%

Sequence: AACTTTTAGTCAGGTA (sugars k3 d10 k3, PS)
- target mRNA inhibition (1 µM): 49%

Sequence: TATAGTAATCACAAGT (sugars k3 d10 k3, PS)
- target mRNA inhibition (1 µM): 53%

Sequence: ATCTATCAGACTTCTT (sugars k3 d9 k3 e1, PS)
- target mRNA inhibition (1 µM): 51%

Sequence: GATGTGGCCATGATTT (sugars k3 d10 k3, PS)
- target mRNA inhibition (1 µM): 9%

Sequence: TAATTTTTGAGCCTAA (sugars k3 d10 k3, PS)
- target mRNA inhibition (1 µM): 41%

Sequence: CTATAACTGGAAGGAG (sugars k3 d10 k3, PS)
- target mRNA inhibition (1 µM): 43%

Sequence: AGTCGGTCACCTTTCA (sugars k3 d9 k3 e1, PS)
- target mRNA inhibition (0.02 µM): 1%
- target mRNA inhibition (0.078 µM): 17%
- target mRNA inhibition (0.313 µM): 37%
- target mRNA inhibition (1 µM): 75%
- target mRNA inhibition (1.25 µM): 66%
- target mRNA inhibition (5 µM): 62%

Sequence: TATTGGTAAGTATTCC (sugars k3 d1 m1 d8 k3, PS)
- target mRNA inhibition (1 µM): 41%

Sequence: GAAGTTAGTATAGTTA (sugars k3 d10 k3, PS)
- target mRNA inhibition (1 µM): 59%

Sequence: TGAAGTTAGTATAGTT (sugars kkdddddddddkekek, PS)
- target mRNA inhibition (1 µM): 46%

Sequence: TAACTGAGTTATTCTC (sugars k3 d10 k3, PS)
- target mRNA inhibition (1 µM): 41%

Sequence: TTAAGATACCCAGGTT (sugars k3 d10 k3, PS)
- target mRNA inhibition (1 µM): 37%

Sequence: TAGTGTAAGCTGAGAG (sugars k3 d1 m1 d8 k3, PS)
- target mRNA inhibition (1 µM): 31%

Sequence: TCCAGAATAGAGTTGC (sugars k3 d10 k3, PS)
- target mRNA inhibition (1 µM): 46%

Sequence: ATTGTCTAAACATCTC (sugars kkdddddddddkekek, PS)
- target mRNA inhibition (1 µM): 62%

Sequence: TATAGTTATCTTCTCA (sugars k3 d10 k3, PS)
- target mRNA inhibition (1 µM): 46%

Sequence: CAGGUTGAGATAAAGC (sugars k3 d1 m1 d8 k3, PS)
- target mRNA inhibition (1 µM): 55%

Sequence: AAGTAAGGTAAAGTCT (sugars k3 d10 k3, PS)
- target mRNA inhibition (1 µM): 20%

Sequence: TAGTCCATGCAAAAGC (sugars k3 d10 k3, PS)
- target mRNA inhibition (1 µM): 66%

Sequence: TTAAAATAGAGTCGGT (sugars kkdddddddddkekek, PS)
- target mRNA inhibition (1 µM): 51%

Sequence: GTAACGGTGATCAAAT (sugars k3 d10 k3, PS)
- target mRNA inhibition (1 µM): 34%

Sequence: CTGGAGGTATGTCATA (sugars k3 d10 k3, PS)
- target mRNA inhibition (1 µM): 23%

Sequence: TGGGATAGTGGAGGAA (sugars k3 d10 k3, PS)
- target mRNA inhibition (1 µM): 13%

Sequence: AACAACCCAGCCTCGG (sugars k3 d10 k3, PS)
- target mRNA inhibition (1 µM): 20%

Sequence: CTCTTATCTGATATGA (sugars k3 d10 k3, PS)
- target mRNA inhibition (1 µM): 7%

Sequence: TCAAAACCTTTGTTGC (sugars k3 d10 k3, PS)
- target mRNA inhibition (1 µM): 6%

Sequence: CTTCACTATATTGCAT (sugars k3 d10 k3, PS)
- target mRNA inhibition (1 µM): 50%
